Test results published in patent US20220008402A1, “INCREASED E-CADHERIN EXPRESSION OR ACTIVITY FOR THE TREATMENT OF INFLAMMATORY DISEASES” (The Cleveland Clinic Foundation, priority 2020, published 2022).
Entries after “also recorded” stand apart in the source; their conditions may differ.

How the values were obtained:
Format in all cases: cell-based, human
[1] = system: T84 cell monolayers; test: Cytokine-induced apoptosis, immunoblotting of PARP, cleaved PARP, cleaved caspase-3; conditions: 10 μM pretreatment 24 h, then IFNγ 50 ng/ml alone or with TNFα 10 ng/ml, 48 h
Procedure: FIG. 7: E-cadherin-enhancing drugs attenuate cytokine-induced cell death. Confluent T84 cell monolayers were pretreated with either vehicle, or ECU (10 μM) for 24 h. Afterwards, cells were exposed to either IFNγ (50 ng/ml) alone, or its combination with TNFα (10 ng/ml) with and without addition of ECU for additional 48h. Cell were lysed and levels of different apoptotic markers were determined by immunoblotting analysis.
To prepare total cell lysates, epithelial cell monolayers were scraped and homogenized using a Dounce homogenizer in RIPA buffer (20 mM Tris, 50 mM NaCl, 2 mM EDTA, 2 mM EGTA, 1% sodium deoxycholate, 1% Triton X-100 (TX-100), and 0.1% SDS, pH 7.4) containing protease inhibitor cocktail and phosphatase inhibitor cocktails 2 and 3 (Sigma-Aldrich). The obtained total cell lysates were cleared by centrifugation (20 min at 14,000×g), diluted with 2×SDS sample loading buffer and boiled. SDS-polyacrylamide gel electrophoresis was conducted using a standard protocol with equal amounts of total protein (10 or 20 μg) loaded per each lane. The separated proteins were transferred to nitrocellulose membranes and the membranes were blocked with 5% non-fat milk. […]

[2] = system: T84 cell monolayers; test: Cytokine (TNFα/IFNγ)-induced disruption of the epithelial barrier (TEER, FITC-dextran flux); conditions: 10 μM pretreatment 24 h, then TNFα 10 ng/ml + IFNγ 50 ng/ml, 48 h
Procedure: Confluent T84 cell monolayers were pretreated with either vehicle, or ECU (10 μM) for 24 h. Afterwards, cells were exposed to a combination of TNFα (10 ng/ml) and IFNγ (50 ng/ml) with and without ECU. (A) TEER was measured at the indicated times. (B) FITC-dextran flux was examined after 48 h incubation with cytokines. Data is presented as mean ±SE (n=3); ***P<0.001.
Confluent T84 cell monolayers were pretreated with either vehicle, or ML327 (10 μM) for 24 hours. Afterwards, cells were exposed to a combination of TNFα (10 ng/ml) and IFNγ (50 ng/ml) with and without ML327. (A) TEER was measured at the indicated times. (B) FITC-dextran flux was examined after 48 h incubation with cytokines. Data is presented as mean ±SE (n=3); **P<0.05, ***P<0.001.
(§1) Transepithelial electrical resistance (TEER) of cultured T84, HT-29 and SK-C015 intestinal epithelial cell monolayers was measured using an EVOMX voltohmmeter (World Precision Instruments, Sarasota, Fla.). Cells were plated on collagen-coated transwell filters (pore size 3 μm, Thermo-Fisher). The resistance of cell-free collagen-coated filters was subtracted from each experimental point. An in vitro dextran flux assay was performed by a following commonly-used protocol. Intestinal epithelial cell monolayers growing on transwell filters were apically exposed to 1 mg/ml of FITC-labeled dextran (4,000 Da) in HEPES-buffered Hanks balanced salt solution (HBSS). After 120 min of incubation, HBSS samples were collected from the lower chamber, and FITC fluorescence intensity was measured using a Victor^3 V plate reader (Perkin Elmer, Waltham, Mass.) with excitation and emission wavelengths 485 and 544 nm, respectively. After subtracting the fluorescence of dextran-free HBSS the amount of FITC dextran translocated across the epithelial cell monolayer was calculated based on a calibration curve using Prism 5 software (GraphPad, La Jolla, Calif.).
A combination of two cytokines were selected: tumor necrosis factor alpha (TNFα, 10 ng/ml) and interferon-gamma (IFNγ, 50 ng/ml), which are known to compromise barrier integrity and trigger apical junction disassembly in cultured epithelial cell monolayers and intestinal mucosa in mice. Indeed, 48 hour incubation of well-differentiated T84 cell monolayers with TNFα and IFNγ caused a dramatic decrease in TEER (FIGS. 3A, 4A) and increase in transepithelial dextran flux (FIGS. 3B, 4B), which indicates the increase in barrier permeability. […] Next, it was examined if ECU protects epithelial adherens junctions (AJ) and tight junctions (TJ) from cytokine-induced disassembly. Immunofluorescence labeling of a specific AJ marker, E-cadherin, and a TJ marker, ZO-1, was used to visualize structure of different junctional complexes. […]

[3] = system: SK-0015 cell monolayers; test: Epithelial barrier permeability in vitro (TEER, FITC-dextran flux), steady state; conditions: 10 μM
Procedure: (§2) FIG. 1: E-cadherin-enhancing drugs decrease ionic permeability of model colonic epithelial cell monolayers. Confluent T84 (A), HT-29cF8 (B) and SK-0015 (C) cell monolayers were treated for indicated times with either vehicle, E-cadherin upregulator (ECU, 10 μM), or ML327 (10 μM). Transepithelial electrical resistance (TEER) of the cell monolayers was measured before and during the drug treatment. Data is presented as mean ±SE (n=3); *P<0.05.
(§3) FIG. 2: E-cadherin-enhancing drugs decrease colonic epithelial permeability to large molecules. Confluent T84 (A), HT-29cF8 (B) and SK-C015 (C) cell monolayers were treated with either vehicle, ECU, or ML327, as described in the FIG. 1 legend. Trans-monolayer flux of FITC-dextran was determined at the end of the drug treatment. Data is presented as mean ±SE (n=3); **P<0.05 ***P<0.01.
as §1
(§4) One set of experiments examined the effects of E-cadherin upregulator (ECU) and ML327 on the barrier properties of normal model intestinal epithelial cell monolayers. Three different human colonic epithelial cell lines, namely, T84, SK-0015 and HT-29 cF8 cells, were used. Cells were plated on collagen-coated transwell filters and allowed to reach confluency and differentiate for 5-7 days after plating. Thereafter, cell monolayers were exposed to either ECU (10 μM), ML327 (10 μM) or vehicle (DMSO). Transepithelial electrical resistance (TEER) was measured before and at different times after addition of E-cadherin-enhancing drugs. A transepithelial flux of FITC-dextran was examined at the end of the drug exposure to evaluate epithelial permeability to large uncharged molecules.

[4] = system: T84 cell monolayers; test: as above; conditions: 10 μM
Procedure: as §2, §3, §1, §4

[5] = system: HT-29 cF8 cell monolayers; test: as above; conditions: 10 μM
Procedure: as §2, §3, §1, §4

[6] = at the end of the drug exposure
[7] = rapid (within 24 h) and sustained (up to 96 h), vs vehicle (DMSO)

O=C(NCCCCc1ccncc1)c1cc(-c2ccco2)on1 [ECU]
Cytokine-induced apoptosis (PARP cleavage, caspase-3 activation) [1]: prevented cytokine-induced PARP cleavage and caspase-3 activation
Cytokine-induced decrease in TEER [2]: prevents cytokine-induced disruption; also recorded: markedly attenuated
Cytokine-induced increase in transepithelial FITC-dextran flux [2]: prevents cytokine-induced disruption; also recorded: markedly attenuated
Transepithelial flux of FITC-dextran [3, 6]: significantly inhibited FITC-dextran flux
Transepithelial electrical resistance (TEER) [3, 7]: increase in TEER
Transepithelial flux of FITC-dextran ([4]; at the end of the drug exposure, T84): significantly inhibited FITC-dextran flux
Transepithelial electrical resistance (TEER) [4, 7]: increase in TEER
Transepithelial flux of FITC-dextran [5, 6]: significantly inhibited FITC-dextran flux
Transepithelial electrical resistance (TEER) ([5]; up to 96 h, vs vehicle (DMSO)): increase in TEER
